Assay results taken from US20060057669A1, “Inactive transcription factor tif-ia and uses thereof” (priority 2002, published 2006).

Key:
[1] = tested on: pre-rRNA synthesis in NIH3T3 cells; assay: Northern blot of cellular pre-rRNA after mitogenic stimulation; format: cell-based; details: starved NIH3T3 cells stimulated by serum, bFGF, EGF or TPA; 40 μM PD98059, 30 min
Experimental: (C) PD98059 inhibits mitogenic stimulation of Pol I transcription. NIH3T3 cells were starved in DMEM/0.1% FCS for 12 hr before stimulation by serum, 10 ng/ml bFGF, 50 ng/ml EGF or 0.1 μM TPA in the absence or presence of 40 μM PD98059 for 30 min. Cellular RNA was isolated and the level of pre-rRNA, c-jun mRNA and cytochrome C oxidase (cox) mRNA was monitored on Northern blots.
NIH3T3, HEK293T and CLL39 cells were cultured in Dulbecco's modified Eagles medium (DMEM) supplemented with 10% fetal calf serum. Cells were transfected with 5 μg of DNA per 10^6 cells using the calcium phosphate DNA coprecipitation method. Total RNA was isolated after 48 h and analyzed on Northern blots as described (Voit et al., EMBO J. 18 (1999), 1891-1899). Cellular pre-rRNA levels were monitored by hybridization to antisense RNA complementary to the first 155 nucleotides of unprocessed 45S pre-RNA. Transcripts from the rDNA reporter plasmid were monitored by hybridization to a riboprobe that is complementary to pUC sequences inserted between the rDNA promoter and terminator sequences of pMrl930-BH. […] Transcripts from the rDNA reporter plasmid were monitored by hybridization to a riboprobe that is complementary to pUC sequences inserted between the rDNA promoter and terminator sequences of pMrl930-BH. […]

Pol I transcription = assay: Pol I reporter plasmid pMrl930-BH co-transfection in NIH3T3 cells, Northern blot; format: cell-based; details: 0.25, 0.5 or 1 μg expression vector
Experimental: (C) Phosphorylation by RSK is necessary and sufficient for enhancing TIF-IA activity in vivo. NIH3T3 cells were co-transfected with 3 μg pMrl930-BH and lor 2.5 μg of pMT2-HA-CA-RSK2 (lanes 2, 3). Transcripts from the reporter plasmid were monitored on Northern blots. An ethidium bromide stain of cellular 18S and 28S rRNA is shown below.
(C) Transcriptional activity of TIF-IAS44A in vivo. NIH3T3 cells were cotransfected with 2.5 μg Pol I reporter plasmid (pMrl930-BH) and 0.25, 0.5 or 1 μg of pcDNA3.1-TIF-IA (lanes 2-4), TIF-IAS44A (lanes 5-7). Transcripts from the reporter plasmid were monitored on Northern blots. The amount of cellular 18S and 28S rRNA is shown below.
NIH3T3, HEK293T and CLL39 cells were cultured in Dulbecco's modified Eagles medium (DMEM) supplemented with 10% fetal calf serum. Cells were transfected with 5 μg of DNA per 10^6 cells using the calcium phosphate DNA coprecipitation method. Total RNA was isolated after 48 h and analyzed on Northern blots as described (Voit et al., EMBO J. 18 (1999), 1891-1899). Cellular pre-rRNA levels were monitored by hybridization to antisense RNA complementary to the first 155 nucleotides of unprocessed 45S pre-RNA. Transcripts from the rDNA reporter plasmid were monitored by hybridization to a riboprobe that is complementary to pUC sequences inserted between the rDNA promoter and terminator sequences of pMrl930-BH. […]

Row | Compound | effect on serum- and growth factor-induced pre-rRNA synthesis [1] | transcription of the Pol I reporter (Pol I transcription)
1 | COc1cccc(-c2cc(=O)c3ccccc3o2)c1N [PD98059] | blocked serum- and growth factor-induced stimulation of pre-rRNA synthesis | 
2 | TIF-IA: wild-type human transcription initiation factor TIF-IA, accession No. AJ272050 |  | enhanced transcription of the reporter
